The text below walks through data of patent US10150758B2, “PRMT5 inhibitors and uses thereof” (Epizyme, Inc., priority 2012, dated 2018).

Chain of PRMT5/MEP50 (O14744 other isoform, or with tags, fused parts or gaps): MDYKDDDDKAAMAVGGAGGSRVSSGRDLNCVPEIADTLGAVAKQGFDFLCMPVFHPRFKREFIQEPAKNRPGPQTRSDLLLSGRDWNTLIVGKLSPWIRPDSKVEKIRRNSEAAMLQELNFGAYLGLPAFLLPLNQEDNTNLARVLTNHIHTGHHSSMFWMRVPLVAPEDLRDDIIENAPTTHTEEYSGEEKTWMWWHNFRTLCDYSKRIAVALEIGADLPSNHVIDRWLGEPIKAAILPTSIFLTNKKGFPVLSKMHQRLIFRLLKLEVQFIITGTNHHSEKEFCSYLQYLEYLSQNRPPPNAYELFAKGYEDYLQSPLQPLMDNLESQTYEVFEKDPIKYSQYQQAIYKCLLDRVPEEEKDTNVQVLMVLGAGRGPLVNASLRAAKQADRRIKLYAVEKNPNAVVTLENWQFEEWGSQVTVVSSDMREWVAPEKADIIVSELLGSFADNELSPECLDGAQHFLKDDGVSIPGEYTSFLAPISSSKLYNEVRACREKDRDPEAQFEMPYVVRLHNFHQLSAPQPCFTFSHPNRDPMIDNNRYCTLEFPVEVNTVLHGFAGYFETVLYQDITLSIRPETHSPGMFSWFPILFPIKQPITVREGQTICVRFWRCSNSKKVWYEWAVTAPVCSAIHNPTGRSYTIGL
Chain of PRMT5/MEP50 (Q9BQA1 other isoform, or with tags, fused parts or gaps partner): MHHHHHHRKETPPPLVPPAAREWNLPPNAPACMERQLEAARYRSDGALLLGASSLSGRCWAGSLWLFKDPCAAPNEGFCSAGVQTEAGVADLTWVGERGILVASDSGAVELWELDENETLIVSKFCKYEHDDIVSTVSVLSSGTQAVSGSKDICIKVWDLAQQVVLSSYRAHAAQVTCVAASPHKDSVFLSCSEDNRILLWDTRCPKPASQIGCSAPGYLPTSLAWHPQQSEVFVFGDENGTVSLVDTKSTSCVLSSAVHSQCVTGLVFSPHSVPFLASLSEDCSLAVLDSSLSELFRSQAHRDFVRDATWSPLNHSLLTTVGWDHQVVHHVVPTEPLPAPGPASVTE

The subject of the first experiment is symmetric di-methyl arginine in Z-138 cells. Nature of the experiment: Z-138 Methylation Assay (In Cell Western for symmetric di-methyl arginine and DNA content). The class given is cell-based. The following applies: Homo sapiens, 96 hours incubation, read-out: ICW EC50. The source says: [formula] [formula] Where top and bottom are the normally allowed to float, but may be fixed at 100 or 0 respectively in a 3-parameter fit. The Hill Coefficient normally allowed to float but may also be fixed at 1 in a 3-parameter fit. Y is the % inhibition and X is the compound concentration. Z-138 Methylation Assay
Z-138 suspension cells were purchased from ATCC (American Type Culture Collection, Manassas, Va.). RPMI/Glutamax medium, penicillin-streptomycin, heat inactivated fetal bovine serum, and D-PBS were purchased from Life Technologies, Grand Island, N.Y., USA. Odyssey blocking buffer, 800CW goat anti-rabbit IgG (H+L) antibody, and Licor Odyssey infrared scanner were purchased from Licor Biosciences, Lincoln, Nebr., USA. Symmetric di-methyl arginine antibody was purchased from EMD Millipore, Billerica, Mass., USA. 16% Paraformaldehyde was purchased from Electron Microscopy Sciences, Hatfield, Pa., USA.
Z-138 suspension cells were maintained in growth medium (RPMI 1640 supplemented with 10% v/v heat inactivated fetal bovine serum and 100 units/mL penicillin-streptomycin) and cultured at 37° C. under 5% CO2.
Cell Treatment, in Cell Western (ICW) for Detection of Symmetric Di-Methyl Arginine and DNA Content.
Z-138 cells were seeded in assay medium at a concentration of 50,000 cells per mL to a 384-well cell culture plate with 50 μL per well. Compound (100 nL) from 384 well source plates was added directly to 384 well cell plate. Plates were incubated at 37° C., 5% CO2 for 96 hours. After four days of incubation, 40 μL of cells from incubated plates were added to poly-D-lysine coated 384 well culture plates (BD Biosciences 356697). Plates were incubated at room temperature for 30 minutes then incubated at 37° C., 5% CO2 for 5 hours. After the incubation, 40 μL per well of 8% paraformaldehyde in PBS (16% paraformaldahyde was diluted to 8% in PBS) was added to each plate and incubated for 30 minutes. Plates were transferred to a Biotek 405 plate washer and washed 5 times with 100 μL per well of wash buffer (1×PBS with 0.1% Triton X-100 (v/v)). Next 30 μL per well of Odyssey blocking buffer were added to each plate and incubated 1 hour at room temperature. Blocking buffer was removed and 20 μL per well of primary antibody was added (symmetric di-methyl arginine diluted 1:100 in Odyssey buffer with 0.1% Tween 20 (v/v)) and plates were incubated overnight (16 hours) at 4° C. Plates were washed 5 times with 100 μL per well of wash buffer. Next 20 μL per well of secondary antibody was added (1:200 800CW goat anti-rabbit IgG (H+L) antibody, 1:1000 DRAQ5 (Biostatus limited) in Odyssey buffer with 0.1% Tween 20 (v/v)) and incubated for 1 hour at room temperature. The plates were washed 5 times with 100 μL per well wash buffer then 1 time with 100 μL per well of water. Plates were allowed to dry at room temperature then imaged on the Licor Odyssey machine which measures integrated intensity at 700 nm and 800 nm wavelengths. Both 700 and 800 channels were scanned.
First, the ratio for each well was determined by:
Each plate included fourteen control wells of DMSO only treatment (minimum inhibition) as well as fourteen control wells for maximum inhibition treated with 3 μM of a reference compound (Background wells). The average of the ratio values for each control type was calculated and used to determine the percent inhibition for each test well in the plate. Reference compound was serially diluted three-fold in DMSO for a total of nine test concentrations, beginning at 3 μM. Percent inhibition was determined and IC50 curves were generated using triplicate wells per concentration of compound.
For orientation: EC50 means the concentration giving half of the maximal effect. Turning to `O=c1cc(-c2ccccc2)ccn1C[C@H](O)CN1CCc2ccccc2C1` [Compound 13], the EC50 was over 50 µM.
For `O=C(NC1CCOCC1)c1ccn(CC(O)CN2CCc3ccccc3C2)c(=O)c1` (stereo not shown) [Compound 33], the EC50 lay within 1 to 10 µM.
On the same count and under the same terms, the figure for `O=C1CN(c2cccc(Cl)c2)CCN1CC(O)CN1CCc2ccccc2C1` (stereo not shown) [Compound 5, 4-(3-chlorophenyl)-1-(3-(3,4-dihydroisoquinolin-2(1H)-yl)-2-hydroxypropyl)piperazin-2-one] is 1 to 10 µM; for `O=C1CN(c2ccc(CO)cc2)CCN1CC(O)CN1CCc2ccccc2C1` (stereo not shown) [Compound 20] it is 1 to 10 µM.
On the same count and under the same terms, as for `O=C1CN(c2ccccc2F)CCN1CC(O)CN1CCc2ccccc2C1` (stereo not shown) [Compound 11, 1-(3-(3,4-dihydroisoquinolin-2(1H)-yl)-2-hydroxypropyl)-4-(2-fluorophenyl)piperazin-2-one], the figure is over 50 µM; as for `Cc1ccccc1N1CCN(CC(O)CN2CCc3ccccc3C2)C(=O)C1` (stereo not shown) [Compound 10], over 50 µM; as for `O=c1cc(-c2ccccc2)ccn1C[C@@H](O)CN1CCc2ccccc2C1` [Compound 14], over 50 µM.

A further experiment deals with PRMT5/MEP50 (Homo sapiens (Human), UniProt O14744). The experiment can be described thus: PRMT5 Biochemical Assay (PRMT5/MEP50 enzyme assay on peptide substrate, 3H-SAM Flashplate). The following applies: PRMT5/MEP50 4 nM, 3H-SAM 75 nM, peptide 40 nM. The source says:
S-adenosylmethionine (SAM), S-adenosylhomocysteine (SAH), bicine, KCl, Tween20, dimethylsulfoxide (DMSO), bovine skin gelatin (BSG), and Tris(2-carboxyethyl)phosphine hydrochloride solution (TCEP) were purchased from Sigma-Aldrich at the highest level of purity possible. ^3H-SAM was purchase from American Radiolabeled Chemicals with a specific activity of 80 Ci/mmol. 384-well streptavidin Flashplates were purchased from PerkinElmer.
Peptide representative of human histone H4 residues 1-15 was synthesized with a C-terminal linker-affinity tag motif and a C-terminal amide cap by 21st Century Biochemicals. The peptide was high high-perfomance liquid chromatography (HPLC) purified to greater than 95% purity and confirmed by liquid chromatography mass spectrometry (LC-MS). The sequence was Ac-[…][K-Biot]-amide (SEQ ID NO.:3).
Full-length human PRMT5 (NM_006109.3) transcript variant 1 clone was amplified from a fetal brain cDNA library, incorporating flanking 5′ sequence encoding a FLAG tag ([…]) (SEQ ID NO.:4) fused directly to Ala 2 of PRMT5. Full-length human MEP50 (NM_024102) clone was amplified from a human testis cDNA library incorporating a 5′ sequence encoding a 6-histidine tag (MHHHHHH) (SEQ ID NO.:5) fused directly to Arg 2 of MEP50. The amplified genes were sublconed into pENTR/D/TEV (Life Technologies) and subsequently transferred by Gateway™ attL×attR recombination to pDEST8 baculvirus expression vector (Life Technologies).
Recombinant baculovirus and Baculovirus-Infected Insect Cells (BIIC) were generated according to Bac-to-Bac kit instructions (Life Technologies) and Wasilko, 2006, respectively. Protein over-expression was accomplished by infecting exponentially growing Spodoptera frugiperda (SF9) cell culture at 1.2×10^6 cell/ml with a 5000 fold dilution of BIIC stock. Infections were carried out at 27° C. for 72 hours, harvested by centrifugation, and stored at −80° C. for purification.
Flag-PRMT5/6His-MeP50 was eluted with 300 mM Imidazole in the same buffer. The purity of recovered protein was 87%. Reference: Wasilko, D. J. and S. E. Lee: “TIPS: titerless infected-cells preservation and scale-up” Bioprocess J., 5 (2006), pp. 29-32.
General Procedure for PRMT5/MEP50 Enzyme Assays on Peptide Substrates.
The assays were all performed in a buffer consisting of 20 mM Bicine (pH=7.6), 1 mM TCEP, 0.005% BSG, and 0.002% Tween20, prepared on the day of use. Compounds in 100% DMSO (1 ul) were spotted into a polypropylene 384-well V-bottom plates (Greiner) using a Platemate Plus outfitted with a 384-channel head (Thermo Scientific). DMSO (1 ul) was added to Columns 11, 12, 23, 24, rows A-H for the maximum signal control and 1 ul of SAH, a known product and inhibitor of PRMT5/MEP50, was added to columns 11, 12, 23, 24, rows I-P for the minimum signal control. A cocktail (40 ul) containing the PRMT5/MEP50 enzyme and the peptide was added by Multidrop Combi (Thermo-Fisher). The compounds were allowed to incubate with PRMT5/MEP50 for 30 min at 25 degrees Celsius, then a cocktail (10 ul) containing ^3H-SAM was added to initiate the reaction (final volume=51 ul). The final concentrations of the components were as follows: PRMT5/MEP50 was 4 nM, ^3H-SAM was 75 nM, peptide was 40 nM, SAH in the minimum signal control wells was 100 uM, and the DMSO concentration was 1%. The assays were stopped by the addition of non-radioactive SAM (10 ul) to a final concentration of 600 uM, which dilutes the ^3H-SAM to a level where its incorporation into the peptide substrate is no longer detectable. 50 ul of the reaction in the 384-well polypropylene plate was then transferred to a 384-well Flashplate and the biotinylated peptides were allowed to bind to the streptavidin surface for at least 1 hour before being washed three times with 0.1% Tween20 in a Biotek ELx405 plate washer. […]
The term IC50 denotes the concentration that inhibits the measured activity by half. For `O=C1CN(Cc2ccccc2)CCN1CC(O)CN1CCc2ccccc2C1` (stereo not shown) [Compound 24], the IC50 is 1 to 10 µM.
On the same count and under the same terms, as for `Cc1cccc(N2CCN(CC(O)CN3CCc4ccccc4C3)C(=O)C2)c1` (stereo not shown) [Compound 3, 1-(3-(3,4-dihydroisoquinolin-2(1H)-yl)-2-hydroxypropyl)-4-(m-tolyl)piperazin-2-one], the figure is 10 to 50 µM.
With `O=C1CN(c2cccc(Cl)c2)CCN1CC(O)CN1CCc2ccccc2C1` (stereo not shown) [Compound 5, 4-(3-chlorophenyl)-1-(3-(3,4-dihydroisoquinolin-2(1H)-yl)-2-hydroxypropyl)piperazin-2-one], the IC50 was under 0.1 µM.
As for `O=C1CC(c2ccccc2)CCN1C[C@H](O)CN1CCc2ccccc2C1` (stereo partly shown) [Compound 16], the IC50 lay in the range of 1 to 10 µM.
The same measure, in the same setting: as for `O=c1cccc(CC(O)CN2CCc3ccccc3C2)[nH]1` (stereo not shown) [Compound 2], the figure is 10 to 50 µM; as for `O=C1CN(Cc2ccccn2)CCN1CC(O)CN1CCc2ccccc2C1` (stereo not shown) [Compound 25], 1 to 10 µM.
On the same count and under the same terms, as for `O=C1CN(Cc2cccnc2)CCN1CC(O)CN1CCc2ccccc2C1` (stereo not shown) [Compound 26], the figure is 1 to 10 µM.
On to `O=C(NC1CCOCC1)C1CC(=O)N(CC(O)CN2CCc3ccccc3C2)C1` (stereo not shown) [Compound 32], for which the IC50 was over 10 µM.
Still for that read-out and setting: the figure for `O=C1CN(c2ccc(CO)cc2)CCN1CC(O)CN1CCc2ccccc2C1` (stereo not shown) [Compound 20] is 0.101 to 1 µM; for `CN(C)c1ccc(N2CCN(C[C@H](O)CN3CCc4ccccc4C3)C(=O)C2)cc1` [Compound 30] it is 1 to 10 µM.
The same measure, in the same setting: as for `CN1CCN(CC(O)CN2CCc3ccccc3C2)C(=O)C1` (stereo not shown) [Compound 27], the figure is over 50 µM.
On the same count and under the same terms, the figure for `O=C1CN(C2CCOCC2)CCN1CC(O)CN1CCc2ccccc2C1` (stereo not shown) [Compound 23] is 1 to 10 µM; for `CS(=O)(=O)N1CCN(CC(O)CN2CCc3ccccc3C2)C(=O)C1` (stereo not shown) [Compound 22] it is 1 to 10 µM; for `O=C1COCCN1CC(O)CN1CCc2ccccc2C1` (stereo not shown) [Compound 28] it is 1 to 10 µM.
Turning to `CC(=O)N1CCN(CC(O)CN2CCc3ccccc3C2)C(=O)C1` (stereo not shown) [Compound 21], the IC50 lay within 1 to 10 µM.
Take `O=C1CC(c2ccccc2)CCN1C[C@@H](O)CN1CCc2ccccc2C1` (stereo partly shown) [Compound 17]: the IC50 lay within 1 to 10 µM.
Same read-out and setting: as for `O=c1cc(Nc2ccccc2)ccn1C[C@H](O)CN1CCc2ccccc2C1` [Compound 18], the figure is 1 to 10 µM.

Another experiment deals with Z-138 cells. The experiment can be described thus: Z-138 Proliferation Assay (Cell Titer Glo). It is filed as cell-based. The following applies: Homo sapiens, 120 h, 5 days, top concentration 20 μM. The source says:
[formula] Z-138 Proliferation Assay
Z-138 suspension cells were purchased from ATCC (American Type Culture Collection, Manassas, Va.). RPMI/Glutamax medium, penicillin-streptomycin, heat inactivated fetal bovine serum were purchased from Life Technologies, Grand Island, N.Y., USA. V-bottom polypropylene 384-well plates were purchased from Greiner Bio-One, Monroe, N.C., USA. Cell culture 384-well white opaque plates were purchased from Perkin Elmer, Waltham, Mass., USA. Cell-Titer Glo® was purchased from Promega Corporation, Madison, Wis., USA. SpectraMax M5 plate reader was purchased from Molecular Devices LLC, Sunnyvale, Calif., USA.
Z-138 suspension cells were maintained in growth medium (RPMI 1640 supplemented with 10% v/v heat inactivated fetal bovine serum and cultured at 37° C. under 5% CO2. Under assay conditions, cells were incubated in assay medium (RPMI 1640 supplemented with 10% v/v heat inactivated fetal bovine serum and 100 units/mL penicillin-streptomycin) at 37° C. under 5% CO2.
For the assessment of the effect of compounds on the proliferation of the Z-138 cell line, exponentially growing cells were plated in 384-well white opaque plates at a density of 10,000 cells/ml in a final volume of 50 μl of assay medium. A compound source plate was prepared by performing triplicate nine-point 3-fold serial dilutions in DMSO, beginning at 10 mM (final top concentration of compound in the assay was 20 μM and the DMSO was 0.2%). A 100 nL aliquot from the compound stock plate was added to its respective well in the cell plate. […] After addition of compounds, assay plates were incubated for 5 days at 37° C., 5% CO2, relative humidity >90%. Cell viability was measured by quantitation of ATP present in the cell cultures, adding 35 μl of Cell Titer Glo® reagent to the cell plates. Luminescence was read in the SpectraMax M5 microplate reader. The concentration of compound inhibiting cell viability by 50% was determined using a 4-parametric fit of the normalized dose response curves.
Consider `O=C(NC1CCOCC1)c1ccn(CC(O)CN2CCc3ccccc3C2)c(=O)c1` (stereo not shown) [Compound 33], for which the EC50 is over 20 µM.
